Reference: patent publication US20170015666A1, “ENHANCER OF ZESTE HOMOLOG 2 INHIBITORS” (GLAXOSMITHKLINE INTELLECTUAL PROPERTY (NO.2) LIMITED, priority 2014, published 2017)

The compounds below were run against T1, EZH2 within the PRC2 complex (Homo sapiens, UniProt Q15910) (assay: EZH2 methyltransferase scintillation proximity assay (SPA) with PRC2 complex). Details: 3H-SAM, HeLa mononucleosome substrate, 30 min preincubation, 1 hour reaction.
T1 construct: FLAG; made in house; host or cells: Sf9 cells
T1 sequence (Q15910 whole entry): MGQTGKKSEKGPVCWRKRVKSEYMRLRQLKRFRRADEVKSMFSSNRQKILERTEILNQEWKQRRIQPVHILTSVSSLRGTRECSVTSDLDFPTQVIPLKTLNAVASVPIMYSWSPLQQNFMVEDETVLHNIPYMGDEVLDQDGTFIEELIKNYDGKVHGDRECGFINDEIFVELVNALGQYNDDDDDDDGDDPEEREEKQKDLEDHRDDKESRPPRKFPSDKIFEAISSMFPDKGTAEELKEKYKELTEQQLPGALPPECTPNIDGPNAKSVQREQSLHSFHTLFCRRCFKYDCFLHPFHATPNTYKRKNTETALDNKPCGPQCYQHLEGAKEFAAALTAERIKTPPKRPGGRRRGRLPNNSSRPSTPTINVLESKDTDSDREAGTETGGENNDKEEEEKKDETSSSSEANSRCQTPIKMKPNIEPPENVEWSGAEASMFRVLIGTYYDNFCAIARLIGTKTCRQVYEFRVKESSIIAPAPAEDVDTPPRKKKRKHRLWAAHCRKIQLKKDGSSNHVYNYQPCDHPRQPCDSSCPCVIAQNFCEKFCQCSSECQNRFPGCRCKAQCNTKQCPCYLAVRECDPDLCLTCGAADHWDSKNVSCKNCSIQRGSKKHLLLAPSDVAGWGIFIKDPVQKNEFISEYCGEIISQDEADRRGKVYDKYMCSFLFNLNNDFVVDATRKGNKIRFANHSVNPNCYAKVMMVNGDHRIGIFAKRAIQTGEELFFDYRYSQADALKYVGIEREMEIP
T1 sequence (O75530 whole entry partner): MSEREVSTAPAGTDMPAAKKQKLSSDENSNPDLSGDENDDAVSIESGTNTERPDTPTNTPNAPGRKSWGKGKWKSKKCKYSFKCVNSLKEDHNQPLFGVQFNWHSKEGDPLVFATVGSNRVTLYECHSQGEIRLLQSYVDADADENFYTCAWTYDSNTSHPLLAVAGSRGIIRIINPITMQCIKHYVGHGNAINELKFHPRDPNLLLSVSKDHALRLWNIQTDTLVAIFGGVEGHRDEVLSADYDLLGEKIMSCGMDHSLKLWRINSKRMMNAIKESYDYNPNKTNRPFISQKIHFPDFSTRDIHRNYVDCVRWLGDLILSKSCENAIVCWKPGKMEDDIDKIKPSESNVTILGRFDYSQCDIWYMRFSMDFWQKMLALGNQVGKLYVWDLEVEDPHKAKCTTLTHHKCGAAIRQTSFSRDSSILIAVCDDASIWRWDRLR
T1 sequence (Q15022 whole entry partner): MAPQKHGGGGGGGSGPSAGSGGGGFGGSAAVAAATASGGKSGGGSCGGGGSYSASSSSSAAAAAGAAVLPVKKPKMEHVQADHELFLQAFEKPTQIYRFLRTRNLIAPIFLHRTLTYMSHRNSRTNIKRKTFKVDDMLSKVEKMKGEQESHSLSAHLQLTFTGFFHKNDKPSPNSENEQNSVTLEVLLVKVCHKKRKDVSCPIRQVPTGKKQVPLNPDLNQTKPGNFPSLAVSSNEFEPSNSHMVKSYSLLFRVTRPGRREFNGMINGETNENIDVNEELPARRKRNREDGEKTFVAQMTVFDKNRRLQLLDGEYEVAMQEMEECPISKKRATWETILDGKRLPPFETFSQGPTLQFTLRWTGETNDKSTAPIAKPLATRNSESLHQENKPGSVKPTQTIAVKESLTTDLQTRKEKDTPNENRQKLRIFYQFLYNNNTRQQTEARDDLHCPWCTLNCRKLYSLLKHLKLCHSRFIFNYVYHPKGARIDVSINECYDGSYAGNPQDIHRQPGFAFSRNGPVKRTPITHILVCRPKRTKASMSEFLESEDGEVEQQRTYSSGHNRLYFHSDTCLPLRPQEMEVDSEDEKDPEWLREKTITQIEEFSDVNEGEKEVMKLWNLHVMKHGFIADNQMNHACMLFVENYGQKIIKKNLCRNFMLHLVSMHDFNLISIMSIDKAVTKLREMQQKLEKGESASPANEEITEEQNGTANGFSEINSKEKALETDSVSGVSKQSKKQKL
T1 sequence (Q09028 whole entry partner): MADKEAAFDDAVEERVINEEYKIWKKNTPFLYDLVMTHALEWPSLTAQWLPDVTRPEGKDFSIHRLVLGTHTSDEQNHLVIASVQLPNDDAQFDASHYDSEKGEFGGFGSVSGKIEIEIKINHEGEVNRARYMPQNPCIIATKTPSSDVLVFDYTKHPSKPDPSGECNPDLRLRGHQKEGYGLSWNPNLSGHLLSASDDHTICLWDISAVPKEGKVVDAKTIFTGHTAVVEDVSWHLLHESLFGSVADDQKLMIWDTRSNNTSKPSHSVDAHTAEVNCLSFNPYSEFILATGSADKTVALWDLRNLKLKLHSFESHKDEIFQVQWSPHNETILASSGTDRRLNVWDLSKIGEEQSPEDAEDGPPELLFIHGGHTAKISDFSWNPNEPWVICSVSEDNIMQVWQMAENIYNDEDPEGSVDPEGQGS
T1 sequence (Q6ZN18 whole entry partner): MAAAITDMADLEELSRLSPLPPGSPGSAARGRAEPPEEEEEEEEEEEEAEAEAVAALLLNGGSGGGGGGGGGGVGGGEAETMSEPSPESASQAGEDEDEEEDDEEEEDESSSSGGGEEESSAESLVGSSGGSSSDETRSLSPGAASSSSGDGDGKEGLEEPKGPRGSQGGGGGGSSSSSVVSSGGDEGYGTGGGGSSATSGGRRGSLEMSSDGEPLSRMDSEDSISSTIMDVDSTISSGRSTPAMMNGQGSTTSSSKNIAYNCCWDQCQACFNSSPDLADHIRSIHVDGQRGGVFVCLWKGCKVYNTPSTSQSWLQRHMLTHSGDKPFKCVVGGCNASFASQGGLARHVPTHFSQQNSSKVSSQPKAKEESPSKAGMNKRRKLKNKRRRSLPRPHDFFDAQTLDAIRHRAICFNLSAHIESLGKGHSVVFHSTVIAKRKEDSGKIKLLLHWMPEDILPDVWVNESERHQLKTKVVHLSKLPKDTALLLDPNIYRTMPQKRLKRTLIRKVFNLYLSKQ
Format: biochemical

In order of falling IC50:
1. Cc1cc2c(c(=O)[nH]1)CNC(=O)c1cc(Cl)cc3c1c(cn3C(C)C)CCCCC2 [Example 3, 2-chloro-4-isopropyl-12-methyl-7,8,9,10,15,16-hexahydro-4H-pyrido[4′,3′:11,12][1]azacyclotridecino[5,4,3-cd]indole-14,17(6H,13H)-dione]  500 nM
2. Cc1cc2c(c(=O)[nH]1)CNC(=O)c1cc(Cl)cc3c1c(cn3C(C)C)C/C=C\CC2 [Example 2, (Z)-2-chloro-4-isopropyl-12-methyl-9,10,15,16-tetrahydro-4H-pyrido[4′,3′:11,12][1]azacyclotridecino[5,4,3-cd]indole-14,17(6H,13H)-dione]  316 nM
3. Cc1cc2c(c(=O)[nH]1)CNC(=O)c1cc(C#CC(C)(C)O)cc3c1c(cn3C(C)C)C/C=C/CC2 [Example 6, (E)-2-(3-hydroxy-3-methylbut-1-yn-1-yl)-4-isopropyl-12-methyl-9,10,15,16-tetrahydro-4H-pyrido[4′,3′:11,12][1]azacyclotridecino[5,4,3-cd]indole-14,17(6H,13H)-dione]  200 nM
4. Cc1cc2c(c(=O)[nH]1)CNC(=O)c1cc(C#N)cc3c1c(cn3C(C)C)C/C=C/CC2 [Example 5, (E)-4-isopropyl-12-methyl-14,17-dioxo-6,9,10,13,14,15,16,17-octahydro-4H-pyrido[4′,3′:11,12][1]azacyclotridecino[5,4,3-cd]indole-2-carbonitrile]  158 nM
5. Cc1cc2c(c(=O)[nH]1)CNC(=O)c1cc(Cl)cc3c1c(cn3C(C)C)C/C=C/CC2 [Example 1, (E)-2-chloro-4-isopropyl-12-methyl-9,10,15,16-tetrahydro-4H-pyrido[4′,3′:11,12][1]azacyclotridecino[5,4,3-cd]indole-14,17(6H,13H)-dione]  40 nM
6. Cc1cc2c(c(=O)[nH]1)CNC(=O)c1cc(-c3ccc(N4CCNCC4)nc3)cc3c1c(cn3C(C)C)C/C=C/CC2 [Example 4, (E)-4-isopropyl-12-methyl-2-(6-(piperazin-1-yl)pyridin-3-yl)-9,10,15,16-tetrahydro-4H-pyrido[4′,3′:11,12][1]azacyclotridecino[5,4,3-cd]indole-14,17(6H,13H)-dione]  32 nM
